Patent US5849753A, “Pyridyl imidazole derivatives and processes for the preparation thereof” (Korea Research Institute of Chemical Technology, priority 1994, dated 1998)

How the values were obtained:
renal hypertensive rat = assay: Blood pressure lowering effect in renal hypertension (renal hypertensive rats, intravenous or oral); assay type: in vivo, male Sprague-Dawley rats; conditions: 3 mg, read-out: Maxium Blood Pressure Lowering Effect(%)
Excerpt: To induce renal hypertension, left renal artery of 4 week-old male Sprague-Dawley rats(from The Korea Research Institute of Chemical Technology) was ligated. The rats were anesthetized with ether and the surgical region on the left abdomen of the rat was shaved, disinfected, and then incised about 1 cm vertically. The renal artery near abdominal aorta was isolated carefully from surrounding tissues and veins, and then ligated completely with a suture(4/0 sterile surgical silk). The muscular strata and skin of the surgical area were sutured with a suture(4/0 sterile surgical silk). The surgical region was disinfected to prevent infection and thereafter, 200 to 250 mg/Kg/day of cephazolin sodium was injected intramuscularly for 2 days. 6 to 8 days after the ligation, rats showing systolic pressure of more than 180 mmHg were selected for renal hypertension test. The blood pressure was determined by a tail-cuff method from the tail under unanesthetized condition(Gerold, M. et al., Arzneimittrel-Forsch, 18, 1285(1968)).
Each of the compounds to be tested was administered intravenously or orally into the renal hypertensive rat. The blood pressure of the rats was determined by direct method(Chiu, A. T. et al., J. Pharmacol. Exp. Ther. 250, 867(1989)) using a catheter. The rats were anesthetized with ketamine hydrochloride(125 mg/kg, i.p.) and a catheter was filled with saline and inserted into a carotid artery and carotid vein. The surgical area was sutured with a metal clip. The rats were relaxed at least 3 hours and the catheter in the carotid artery was adapted to an isotec pressure transducer to determine their blood pressure and heart rate with a physiograph(Linearcorder WR3310). After the blood pressure was stabilized, the test compound was administered intravenously or orally. For intravenous administration, the administered volume and washing volume were 1.0 ml/Kg and 0.2 ml, respectively. The blood pressure and heart rate were measured in regular intervals up to 24 hours after the administration of the test compound and compared with those measured after the administration of the control compound Losartan.
The test compound was dissolved in 0.05N KOH for intravenous administration and suspended in Tween 80 for oral administration.

angiotensin II receptor = assay: Angiotensin II Receptor Binding Assay ([3H] angiotensin II binding inhibition); conditions: [3H] angiotensin II ligand; 60 minutes, 25° C.; test concentration not given
Protocol: In accordance with the procedure disclosed in Chiu, A. T. et al., Eur. J. Pharm., 157, 13(1981), a ligand marked with a radioisotope was reacted with an angiotensin II receptor and the reactant was filtered with a glass fiber to remove unreacted ligand. After washing the filter, the amount of the remaining isotope was measured to determine the binding activity of the ligand, as described below in detail.
Sprague-Dawley rats and Wistar rats of 250 to 350 g(from The Korea Research Institute of Chemical Technology) were tested and the test procedures were carried out at 4° C., unless otherwise specified. Adrenal gland was separated from the Sprague-Dawley rats(liver, in the case of Wistar rats) into cortex and medulla. The separated adrenal cortex and medulla were washed with a sucrose buffer solution (0.2M sucrose, 1 mM EDTA, 10 mM Tris, pH 7.2) and homogenized in the same buffer solution by using a Teflon pestle and a Brinkmann homogenizer. The homogenates were centrifuged at 3,000 Xg for 10 minutes to remove precipitates and further centrifuged at 12,000 Xg for 13 minutes. The final supernatants were centrifuged at 102,000 Xg for 1 hour to obtain precipitates, which were washed with a Tris buffer solution(50 mM Tris, 5 mM MgCl2, pH 7.2) and re-centrifuged at 102,000 Xg for 1 hour. The resulting precipitates were immediately processed at the following step or stored at -70° C.
The precipitates were suspended in a Tris buffer solution. The amount of protein was determined by using a Bio-Rad DC protein analyzing kit and the protein concentration was adjusted to the amounts of: 0.2 to 0.3 mg/ml(Sprague-Dawley rat: adrenal cortex), 1.5 to 2.0 mg/ml(Sprague-Dawleyrat: adrenal medulla), and 1.5 to 2.0 mg/ml(Wistar rat: liver). To the suspension, bovine serum albumin(BSA) was added to a concentration of 0.25 wt % and the resultant was immediately processed at the following step or stored at -70° C.
(ii) Measurement of angiotensin II receptor binding capacity 50 μl(based on ligand) of [^3 H] angiotensin II(NEN, NET-446) and 10 μl of each of the test compounds with various concentrations were added to the buffer solution(50 mM Irris(pH 7.2), 5 mM MgCl2, 0.25% BSA) to adjust the final volume to be 0.5 ml. 100 μl of the receptor suspension was added thereto and the resulting solution was reacted for 60 minutes while stirring in a water bath at 25° C. 3 ml of cold buffer solution for analysis was added to cease the reaction. The isotope which was bound to the receptor was isolated from the resultant by using Brandel Cell Harvester System with Whatman glass fiber GF/C. After washing the filter, the radioactivity of the filter was determined by using a liquid scintillation counter. Binding inhibition(%) of the test compound was calculated as follows:
Binding Inhibition(%)=[{(T--B)-(S--B)}/(T--B)]×100
wherein T is cpm of the reaction product untreated with the test compound, S is cpm of the reaction product treated with the test compound, and B is cpm of blank test.

Compound	change in vivo at 3 mg (renal hypertensive rat) [%]	Binding Inhibition(%) (angiotensin II receptor)
CCCCc1nc2cc(-c3ccccc3)c(C(OCC)OCC)nc2n1Cc1ccc(-c2ccccc2-c2nnn[nH]2)cc1 [Example 2, 2-butyl-5-diethoxymethyl-6-phenyl-3-[2'-(1H-tetrazol-5-yl)-biphenyl-4-ylmethyl]-3H-imidazo[4,5-b]pyridine]	-45	–
CCCCc1nc2cc(-c3ccccc3)c(C3OCCO3)nc2n1Cc1ccc(-c2ccccc2-c2nnn[nH]2)cc1 [Example 3, 2-butyl-5-(1,3-dioxolan-2-yl)-6-phenyl-3-[2'-(1H-tetrazol-5-yl)-biphenyl-4-ylmethyl]-3H-imidazo[4,5-b]pyridine]	-27	70.6
CCCCc1nc2cc(-c3ccccc3)c(C3OCCCO3)nc2n1Cc1ccc(-c2ccccc2-c2nn[nH]n2)cc1 [Example 4, 2-butyl-5-(1,3-dioxan-2-yl)-6-phenyl-3-[2'-(1-tetrazol-5-yl)-biphenyl-4-ylmethyl]-3H-imidazo[4,5-b]pyridine]	-33	60.9
CCCCc1nc2cc(-c3ccc(OC)cc3)c(C(OC)OC)nc2n1Cc1ccc(-c2ccccc2-c2nn[nH]n2)cc1 [Example 6, 2-butyl-5-dimethoxymethyl-6-(4-methoxyphenyl-1-yl)-3-[2'-(1H-tetrazol-5-yl)-biphenyl-4-ylmethyl]-3H-imidazo[4,5-b]pyridine]	-25	49.0
CCCCc1nc2cc(CCC(=O)OCC)c(C(OC)OC)nc2n1Cc1ccc(-c2ccccc2-c2nn[nH]n2)cc1 [Example 13, 2-butyl-5-dimethoxymethyl-6-[2-(ethoxycarbonyl)-ethyl-1-yl]-3-[2'-(1H-tetrazol-5-yl)-biphenyl-4-ylmethyl]-3H-imidazo[4,5-b]pyridine]	-32	95.0
CCCCc1nc2cc(CCc3ccccc3)c(C(OC)OC)nc2n1Cc1ccc(-c2ccccc2-c2nn[nH]n2)cc1 [Example 15, 2-butyl-5-dimethoxymethyl-6-(2-phenylethyl-1-yl)-3-[2'-(1H-tetrazol-5-yl)-biphenyl-4-ylmethyl]-3H-imidazo[4,5-b]pyridine]	-36	82.0
CCCCc1nc2cc(-c3ccc(CO)cc3)c(C(OC)OC)nc2n1Cc1ccc(-c2ccccc2-c2nn[nH]n2)cc1 [Example 18, 2-butyl-5-dimethoxymethyl-6-(4-hydroxymethylphenyl-1-yl)-3-[2'-(1H-tetrazol-5-yl)-biphenyl-4-ylmethyl]-3H-imidazo[4,5-b]pyridine]	-33	89.4
CCCCc1nc2cc(-c3ccccc3[N+](=O)[O-])c(C(OC)OC)nc2n1Cc1ccc(-c2ccccc2-c2nn[nH]n2)cc1 [Example 19, 2-butyl-5-dimethoxymethyl-6-(2-nitrophenyl-1-yl)-3-[2'-(1H-tetrazol-5-yl)-biphenyl-4-ylmethyl]-3H-imidazo[4,5-b]pyridine]	-29	70.9
CCCCc1nc2cc(-c3ccccc3OC)c(C(OC)OC)nc2n1Cc1ccc(-c2ccccc2-c2nn[nH]n2)cc1 [Example 20, 2-butyl-5-dimethoxymethyl-6-(2-methoxyphenyl-1-yl)-3-[2'-(1H-tetrazol-5-yl)-biphenyl-4-ylmethyl]-3H-imidazo[4,5-b]pyridine]	-25	81.9
CCCCc1nc2cc(-c3cccc[n+]3[O-])c(C(OC)OC)nc2n1Cc1ccc(-c2ccccc2-c2nn[nH]n2)cc1 [Example 21, 2-butyl-5-dimethoxymethyl-6-(1-oxy-pyridin-2-yl)-3-[2'-(1H-tetrazol-5-yl)-biphenyl-4-ylmethyl]-3H-imidazo[4,5-b]pyridine]	-20	92.2
CCCCc1nc2cc(-c3cccnc3)c(C(OC)OC)nc2n1Cc1ccc(-c2ccccc2-c2nnn[nH]2)cc1 [Example 22, 2-butyl-5-dimethoxymethyl-6-(pyridin-3-yl)-3-[2'-(1H-tetrazol-5-yl)-biphenyl-4-ylmethyl]-3H-imidazo[4,5-b]pyridine]	-38	94.8
CCCCc1nc2cc(-c3ccncc3)c(C(OC)OC)nc2n1Cc1ccc(-c2ccccc2-c2nnn[nH]2)cc1 [Example 23, 2-butyl-5-dimethoxymethyl-6-(pyridin-4-yl)-3-[2'-(1H-tetrazol-5-yl)-biphenyl-4-ylmethyl]-3H-imidazo[4,5-b]pyridine]	-33	92.9
CCCCc1nc2cc(-c3ccc[n+]([O-])c3)c(C(OC)OC)nc2n1Cc1ccc(-c2ccccc2-c2nn[nH]n2)cc1 [Example 24, 2-butyl-5-dimethoxymethyl-6-(1-oxy-pyridin-3-yl)-3-[2'-(1H-tetrazol-5-yl)-biphenyl-4-ylmethyl]-3H-imidazo[4,5-b]pyridine]	-18	94.9
CCCCc1nc2cc(-c3cc[n+]([O-])cc3)c(C(OC)OC)nc2n1Cc1ccc(-c2ccccc2-c2nn[nH]n2)cc1 [Example 25, 2-butyl-5-dimethoxymethyl-6-(1-oxy-pyridin-4-yl)-3-[2'-(1H-tetrazol-5-yl)-biphenyl-4-ylmethyl)-3H-imidazo[4,5-b]pyridine]	-29	97.0
